These results are taken from article PMC12774438, “CBL ubiquitin ligase targets translation as a degrader E3” (Chemical Science, 2025).

Where a SMILES comes first, the peptide text is derived from it.

First the molecules themselves.
B1: eIFTerminator1-CBL binary complex (complex)
chain 1: KKRYSREFLLGFGGSGMTVEEMDSWIKSWDQM
chain 2: PPGTVDKKMVEKCWKLMDKVVRLCQNPKLALKNSPPYILDLLPDTYQHLRTILSRYEGKMETLGENEYFRVFMENLMKKTKQTISLFKEGKERMYEENSQPRRNLTKLSLIFSHMLAELKGIFPSGLFQGDTFRITKADAAEFWRKAFGEKTIVPWKSFRQALHEVHPISSGLEAMALKSTIDLTCNDYISVFEFDIFTRLFQPWSSLLRNWNSLAVTHPGYMAFLTYDEVKARLQKFIHKPGSYIFRLSCTRLGQWAIGYVTADGNILQTIPHNKPLFQALIDGFREGFYLFPDGRNQNPDLTGLCEPTPQDHIKVTQEQYELYCEMGSTFQLCKICAENDKDVKIEPCGHLMCTSCLTSWQESEGQGCPFCRCEIKGTEPIVVDPFD
B2: eIFTerminator4-CBL binary complex (complex)
chain 1: MTVEEMDSWIKSWDQMGGSGGSGGSGKKRYSREFLLGF
chain 2: PPGTVDKKMVEKCWKLMDKVVRLCQNPKLALKNSPPYILDLLPDTYQHLRTILSRYEGKMETLGENEYFRVFMENLMKKTKQTISLFKEGKERMYEENSQPRRNLTKLSLIFSHMLAELKGIFPSGLFQGDTFRITKADAAEFWRKAFGEKTIVPWKSFRQALHEVHPISSGLEAMALKSTIDLTCNDYISVFEFDIFTRLFQPWSSLLRNWNSLAVTHPGYMAFLTYDEVKARLQKFIHKPGSYIFRLSCTRLGQWAIGYVTADGNILQTIPHNKPLFQALIDGFREGFYLFPDGRNQNPDLTGLCEPTPQDHIKVTQEQYELYCEMGSTFQLCKICAENDKDVKIEPCGHLMCTSCLTSWQESEGQGCPFCRCEIKGTEPIVVDPFD
B3: eIFTerminator2-CBL binary complex (complex)
chain 1: KKRYSREFLLGFGGSGGSGGSGMTVEEMDSWIKSWDQM
chain 2: PPGTVDKKMVEKCWKLMDKVVRLCQNPKLALKNSPPYILDLLPDTYQHLRTILSRYEGKMETLGENEYFRVFMENLMKKTKQTISLFKEGKERMYEENSQPRRNLTKLSLIFSHMLAELKGIFPSGLFQGDTFRITKADAAEFWRKAFGEKTIVPWKSFRQALHEVHPISSGLEAMALKSTIDLTCNDYISVFEFDIFTRLFQPWSSLLRNWNSLAVTHPGYMAFLTYDEVKARLQKFIHKPGSYIFRLSCTRLGQWAIGYVTADGNILQTIPHNKPLFQALIDGFREGFYLFPDGRNQNPDLTGLCEPTPQDHIKVTQEQYELYCEMGSTFQLCKICAENDKDVKIEPCGHLMCTSCLTSWQESEGQGCPFCRCEIKGTEPIVVDPFD
B4: eIFTerminator3-CBL binary complex (complex)
chain 1: MTVEEMDSWIKSWDQMGGSGKKRYSREFLLGF
chain 2: PPGTVDKKMVEKCWKLMDKVVRLCQNPKLALKNSPPYILDLLPDTYQHLRTILSRYEGKMETLGENEYFRVFMENLMKKTKQTISLFKEGKERMYEENSQPRRNLTKLSLIFSHMLAELKGIFPSGLFQGDTFRITKADAAEFWRKAFGEKTIVPWKSFRQALHEVHPISSGLEAMALKSTIDLTCNDYISVFEFDIFTRLFQPWSSLLRNWNSLAVTHPGYMAFLTYDEVKARLQKFIHKPGSYIFRLSCTRLGQWAIGYVTADGNILQTIPHNKPLFQALIDGFREGFYLFPDGRNQNPDLTGLCEPTPQDHIKVTQEQYELYCEMGSTFQLCKICAENDKDVKIEPCGHLMCTSCLTSWQESEGQGCPFCRCEIKGTEPIVVDPFD

T2 sequence (P06730 whole entry): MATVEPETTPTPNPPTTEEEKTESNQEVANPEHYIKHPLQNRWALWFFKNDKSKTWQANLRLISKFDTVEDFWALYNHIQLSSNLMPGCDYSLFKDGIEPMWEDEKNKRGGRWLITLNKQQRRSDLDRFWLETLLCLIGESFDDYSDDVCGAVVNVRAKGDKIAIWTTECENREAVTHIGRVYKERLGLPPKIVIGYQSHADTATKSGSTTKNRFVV

In the first experiment the target is T1, His-eIF4E (Homo sapiens, UniProt P06730).
T1 construct: made in house; host or cells: E. coli BL21(DE3) Gold
T1 sequence (P06730 whole entry): as above
Put plainly: SPR binary binding of peptides to immobilised His-eIF4E. As to conditions: 25°C, ligand His-eIF4E amine-coupled to CM5 chip, steady-state affinity, analyte 0.005859-0.75 µM, n = 3, mean ± SD. As to the method:
Supplementary Figure 4. Related to Table 2
A. Sensorgrams (left) and binding curves (right) showing a three-fold dilution series […]
over immobilised eIF4E. […]
(1 picture or pasted object on this page, not shown here) […]
Data were analysed by […] affinity analysis using Cytiva Biacore TM Insight Evaluation Software. Sensorgrams for figures were made using GraphPad Prism 9.5.1.
Studying the interactions between eIF4E and eIFTerminator1-4
His-eIF4E protein was immobilised on Cytiva’s sensor chip CM5 using amine-coupling. The chip was docked and primed in running buffer (50 mM HEPES pH 7.5, 100 mM NaCl, 1 mM TCEP, 0.05% Tween20). Cytiva’s amine-coupling kit was used to capture the ligand. Briefly, 0.4 M EDC and 0.1 M NHS from the kit were mixed 50:50 and injected to activate the chip surface for 300 s at 10 μL/min. His-eIF4E was prepared for amine coupling as described previously (15). After achieving a capture level of approximately 120 RU, the remaining binding sites were blocked with ethanolamine hydrochloride-NaOH (pH 8.5) from the kit for 420 s at a flow rate of 10 μL/min. Reference surfaces were prepared in duplicates […]
Multi-cycle experiments were performed to gain steady-state binding affinity of eIFTerminator1-4 to His-eIF4E. At a flow rate of 30 μL/min, 20 startups with a 30 s contact time and a 30 s dissociation time were done prior to sample injection. An 8-point, 1 in 2 dilution series of eIFTerminator1-4 or eIF4G1-D5S peptide was injected (0.005859 – 0.75 μM) with a 100 s contact time and a 250 s dissociation time at a flow rate of 30 μL/min. The peptides were dissolved in running buffer and filtered using Coster Spin-X 0.22 μM centrifuge tube filters as described above. […]
In general, Kd refers to the constant that tells how readily two partners part at equilibrium. Lower therefore signals tighter binding. Take `CC(C)C[C@H](NC(=O)[C@H](CC(C)C)NC(=O)[C@H](Cc1ccccc1)NC(=O)[C@H](CCC(=O)O)NC(=O)[C@H](CCCNC(=N)N)NC(=O)[C@H](CO)NC(=O)[C@H](Cc1ccc(O)cc1)NC(=O)[C@H](CCCNC(=N)N)NC(=O)[C@H](CCCCN)NC(=O)[C@@H](N)CCCCN)C(=O)NCC(=O)N[C@@H](Cc1ccccc1)C(N)=O` [eIF4G1-D5S] (H-KKRYSREFLLGF-NH2): binding was characterised by a dissociation constant (Kd) of 38.9 ± 6.5 nM.

`CC[C@H](C)[C@H](NC(=O)[C@H](Cc1c[nH]c2ccccc12)NC(=O)[C@H](CO)NC(=O)[C@H](CC(=O)O)NC(=O)[C@H](CCSC)NC(=O)[C@H](CCC(=O)O)NC(=O)[C@H](CCC(=O)O)NC(=O)[C@@H](NC(=O)[C@@H](NC(=O)[C@H](CCSC)NC(=O)CNC(=O)[C@H](CO)NC(=O)CNC(=O)CNC(=O)[C@H](Cc1ccccc1)NC(=O)CNC(=O)[C@H](CC(C)C)NC(=O)[C@H](CC(C)C)NC(=O)[C@H](Cc1ccccc1)NC(=O)[C@H](CCC(=O)O)NC(=O)[C@H](CCCNC(=N)N)NC(=O)[C@H](CO)NC(=O)[C@H](Cc1ccc(O)cc1)NC(=O)[C@H](CCCNC(=N)N)NC(=O)[C@H](CCCCN)NC(=O)[C@@H](N)CCCCN)[C@@H](C)O)C(C)C)C(=O)N[C@@H](CCCCN)C(=O)N[C@@H](CO)C(=O)N[C@@H](Cc1c[nH]c2ccccc12)C(=O)N[C@@H](CC(=O)O)C(=O)N[C@@H](CCC(N)=O)C(=O)N[C@@H](CCCNC(=N)N)C(N)=O` [eIFTerminator1] (H-KKRYSREFLLGFGGSGMTVEEMDSWIKSWDQR-NH2) came in with an equilibrium dissociation constant (Kd) of 54 ± 9 nM.

`CC[C@H](C)[C@H](NC(=O)[C@H](Cc1c[nH]c2ccccc12)NC(=O)[C@H](CO)NC(=O)[C@H](CC(=O)O)NC(=O)[C@H](CCSC)NC(=O)[C@H](CCC(=O)O)NC(=O)[C@H](CCC(=O)O)NC(=O)[C@@H](NC(=O)[C@@H](NC(=O)[C@@H](N)CCSC)[C@@H](C)O)C(C)C)C(=O)N[C@@H](CCCCN)C(=O)N[C@@H](CO)C(=O)N[C@@H](Cc1c[nH]c2ccccc12)C(=O)N[C@@H](CC(=O)O)C(=O)N[C@@H](CCC(N)=O)C(=O)N[C@@H](CCCNC(=N)N)C(=O)NCC(=O)NCC(=O)N[C@@H](CO)C(=O)NCC(=O)N[C@@H](CCCCN)C(=O)N[C@@H](CCCCN)C(=O)N[C@@H](CCCNC(=N)N)C(=O)N[C@@H](Cc1ccc(O)cc1)C(=O)N[C@@H](CO)C(=O)N[C@@H](CCCNC(=N)N)C(=O)N[C@@H](CCC(=O)O)C(=O)N[C@@H](Cc1ccccc1)C(=O)N[C@@H](CC(C)C)C(=O)N[C@@H](CC(C)C)C(=O)NCC(=O)N[C@@H](Cc1ccccc1)C(N)=O` [eIFTerminator2] (H-MTVEEMDSWIKSWDQRGGSGKKRYSREFLLGF-NH2) came in with an equilibrium dissociation constant (Kd) of 67.5 ± 7.4 nM.

As to `CC[C@H](C)[C@H](NC(=O)[C@H](Cc1c[nH]c2ccccc12)NC(=O)[C@H](CO)NC(=O)[C@H](CC(=O)O)NC(=O)[C@H](CCSC)NC(=O)[C@H](CCC(=O)O)NC(=O)[C@H](CCC(=O)O)NC(=O)[C@@H](NC(=O)[C@@H](NC(=O)[C@H](CCSC)NC(=O)CNC(=O)[C@H](CO)NC(=O)CNC(=O)CNC(=O)[C@H](CO)NC(=O)CNC(=O)CNC(=O)[C@H](CO)NC(=O)CNC(=O)CNC(=O)[C@H](Cc1ccccc1)NC(=O)CNC(=O)[C@H](CC(C)C)NC(=O)[C@H](CC(C)C)NC(=O)[C@H](Cc1ccccc1)NC(=O)[C@H](CCC(=O)O)NC(=O)[C@H](CCCNC(=N)N)NC(=O)[C@H](CO)NC(=O)[C@H](Cc1ccc(O)cc1)NC(=O)[C@H](CCCNC(=N)N)NC(=O)[C@H](CCCCN)NC(=O)[C@@H](N)CCCCN)[C@@H](C)O)C(C)C)C(=O)N[C@@H](CCCCN)C(=O)N[C@@H](CO)C(=O)N[C@@H](Cc1c[nH]c2ccccc12)C(=O)N[C@@H](CC(=O)O)C(=O)N[C@@H](CCC(N)=O)C(=O)N[C@@H](CCCNC(=N)N)C(N)=O` [eIFTerminator3] (H-KKRYSREFLLGFGGSGGSGGSGMTVEEMDSWIKSWDQR-NH2), the Kd turned out to be 39.5 ± 3.4 nM.

For the molecule `CC[C@H](C)[C@H](NC(=O)[C@H](Cc1c[nH]c2ccccc12)NC(=O)[C@H](CO)NC(=O)[C@H](CC(=O)O)NC(=O)[C@H](CCSC)NC(=O)[C@H](CCC(=O)O)NC(=O)[C@H](CCC(=O)O)NC(=O)[C@@H](NC(=O)[C@@H](NC(=O)[C@@H](N)CCSC)[C@@H](C)O)C(C)C)C(=O)N[C@@H](CCCCN)C(=O)N[C@@H](CO)C(=O)N[C@@H](Cc1c[nH]c2ccccc12)C(=O)N[C@@H](CC(=O)O)C(=O)N[C@@H](CCC(N)=O)C(=O)N[C@@H](CCCNC(=N)N)C(=O)NCC(=O)NCC(=O)N[C@@H](CO)C(=O)NCC(=O)NCC(=O)N[C@@H](CO)C(=O)NCC(=O)NCC(=O)N[C@@H](CO)C(=O)NCC(=O)N[C@@H](CCCCN)C(=O)N[C@@H](CCCCN)C(=O)N[C@@H](CCCNC(=N)N)C(=O)N[C@@H](Cc1ccc(O)cc1)C(=O)N[C@@H](CO)C(=O)N[C@@H](CCCNC(=N)N)C(=O)N[C@@H](CCC(=O)O)C(=O)N[C@@H](Cc1ccccc1)C(=O)N[C@@H](CC(C)C)C(=O)N[C@@H](CC(C)C)C(=O)NCC(=O)N[C@@H](Cc1ccccc1)C(N)=O` [eIFTerminator4] (H-MTVEEMDSWIKSWDQRGGSGGSGGSGKKRYSREFLLGF-NH2), binding was put at a Kd of 60.6 ± 8.5 nM.

The next experiment addresses T2, His-eIF4E (UniProt P06730 1-217).
T2 construct: eukaryotic translation initiation factor 4E (eIF4E); Immobilised on the SPR chip; also called eukaryotic translation initiation factor 4E; source: recombinant
The experiment is described as follows: SPR; His-eIF4E immobilised; dilution series of eIFTerminator with a fixed, saturating concentration of CBL (1 µM) as analyte; steady-state affinities, ternary complex. As to conditions: both partners purified.
With B1, binding was put at a Kd of 77.8 nM. This lies in the double-digit nanomolar range.

On to B2, for which the affinity, expressed as Kd, was 43.8 nM.

B3 returned a Kd of 60.7 nM.

B4 showed a dissociation constant (Kd) of 81.8 nM.
